Data: patent US20250205317A1, “METHODS AND COMPOSITIONS FOR THE TREATMENT OF STROKE” (University of Maryland, Baltimore, priority 2022, published 2025)
Entries after “also recorded” stand apart in the source; their conditions may differ.

Assays:
[1] = tested on: rat model with type 1 diabetes mellitus and bilateral ischemia; conditions: 30-minute bilateral ischemia; cited from earlier work
[2] = tested on: patients with or without T2DM; conditions: long-term use, regardless of T2DM; cited from earlier work
[3] = Serum glucose before and after canagliflozin administration (Example 3); type: in vivo, mouse; conditions: 0.07 mg/kg IV; compared to baseline / vehicle; 5 mice/group
Protocol: Drugs of the gliflozin class are used in patients with diabetes mellitus to lower serum glucose. To control for the possibility that the effect of canagliflozin was mediated by a reduction in serum glucose, we measured serum glucose at various times before and after canagliflozin (0.07 mg/kg IV) administration.

[4] = tested on: astrocytes (SGLT2 activated by glucose); assay: Astrocyte cell volume in ex vivo MCAo/R brain slices after glycemic challenge; type: cell-based, mouse; conditions: ipsilateral brain slices, MCAo/R 2/6 hours; step change 2 to 10 mM glucose; 5 μM
[5] = Blood glucose at reperfusion and at euthanasia by glucometer (Example 4); type: in vivo, mouse; conditions: non-diabetic mice; 200 μg/kg IV; 5-7 mice/group
C57BL6 mice, MCAo/R = assay: MCAo/R (2/24 hours): infarct volume, hemispheric swelling, brain water, Garcia score (Example 4); type: in vivo, mouse
[6] = tested on: C57BL/6 mice, MCAo and reperfusion; assay: 2-hour MCAo followed by 24 hours reperfusion, infarct volume and reperfusion edema (Example 2); type: in vivo, mouse; conditions: 0.07 mg/kg IV at reperfusion
Protocol: A,B: Edema, measured as percent hemispheric swelling, vs. TTC infarct volume following 2 hour MCAo and 24 hour reperfusion; data are shown for C57BL/6 mice treated upon reperfusion with vehicle (empty circles) vs. the SGLT2 inhibitor, canagliflozin (filled squares; 0.07 mg/kg IV). Note the significant downward shift in the regression line, signifying reduced coupling between reperfusion edema and infarct volume.
The known variability in the brain damage caused by ischemia in C57BL/6 mice was leveraged (Knauss, et al., Frontiers in Neuroscience 2020) to quantify the relationship between reperfusion edema and infarct volume, under both control conditions and with SGLT2 inhibition. Mice underwent 2-hour MCAo followed by 24 hours reperfusion. At 2 hours, at the time of reperfusion, mice were randomly assigned to receive either vehicle control or canagliflozin (0.07 mg/kg IV). At 24 hours, the brains were evaluated for infarct volume using 2,3,5-triphenyltetrazolium chloride (TTC) (Khan, et al., Evaluation of an optimal temperature for brain storage in delayed 2, 3,5-triphenyltetrazolium chloride staining, J. Neurosci. Methods 2000, 98:43-47), and the hemisphere volume was quantified as a measure of reperfusion edema. McBride, et al., Correcting for Brain Swelling's Effects on Infarct Volume Calculation After Middle Cerebral Artery Occlusion in Rats, Transl. Stroke Res. 2015, 6:323-338. […]

[7] = 200 μg/kg IV at reperfusion, mean ± S.E.

Row | Structure (SMILES) | blood glucose [1] | infarct volume [1] | progression of kidney disease [2] | risk of death from cardiovascular disease [2] | serum glucose [3] | glucose-induced changes in astrocyte volume [4] | blood glucose at 24 hours [5] [mg/dL] | blood glucose at reperfusion [5] [mg/dL] | neurological function, Garcia score (median) (C57BL6 mice, MCAo/R; 200 μg/kg IV) | hemispheric swelling (C57BL6 mice, MCAo/R; [7]) [%] | infarct volume (C57BL6 mice, MCAo/R; [7]) [mm^3] | maximum hemispheric swelling (YM) from exponential fit (C57BL6 mice, MCAo/R; 200 μg/kg IV, fit to Eq. 1) [%] | ipsilateral brain water (C57BL6 mice, MCAo/R; 200 μg/kg IV, wet weight/dry weight method) | infarct volume (TTC) [6] | reperfusion edema (percent hemispheric swelling) relative to infarct volume ([6]; shift in Deming regression p<0.0001)
1 | OC[C@H]1O[C@@H](c2ccc(Cl)c(Cc3ccc(O[C@H]4CCOC4)cc3)c2)[C@H](O)[C@@H](O)[C@@H]1O [empagliflozin] | reduced blood glucose | reduced blood glucose as well as infarct volume | slows the progression of kidney disease | reduces the risk of death from cardiovascular disease | – | – | – | – | – | – | – | – | – | – | –
2 | Cc1ccc([C@@H]2O[C@H](CO)[C@@H](O)[C@H](O)[C@H]2O)cc1Cc1ccc(-c2ccc(F)cc2)s1 [canagliflozin] | – | – | – | – | remained euglycemic; also recorded: not affected | completely blocked | 146 ± 10 | 175 ± 10 | 8 | 15.7±1.0 | 87.7±6.7 | 17.9 | 82.3±0.4 | 63.1±8.0 % of hemisphere | reduced at all infarct volumes
